Data from patent US12589071B2, “Suckable and/or melt-in-mouth tablet based on hyaluronic acid and chondroitin sulphate and salts thereof” (SOFAR SWISS SA, priority 2017, dated 2026).

Test system: patients with a first diagnosis of GERD with extraesophageal (upper) symptoms
Experiment: Randomised open-label clinical study, Experimental Part (II): RSI (Reflux Symptom Index) questionnaire
Type: in vivo, human
From the text: The aim of the present study was to assess, in patients who, at the first diagnosis, presented with extraesophageal symptoms associated with gastroesophageal reflux disease (GERD), the effect of a 6-week treatment with the composition C1 comprising a chondroitin sulphate, a hyaluronic acid or a salt thereof and an aluminium hydroxide, in combination with a treatment with proton pump inhibitors (PPI) versus treatment with PPIs alone; i.e. to verify the reduction in the frequency of symptoms in patients by means of the Likert questionnaire, and the severity of upper symptoms, by means of the RSI (Reflux Symptom Index) questionnaire, and to assess Responders and Non-Responders in the two groups of patients after 6 weeks of treatment versus the baseline.
The multi-centre prospective, randomised, open-label clinical study, with two parallel arms of treatment, followed by the FU period, provided for the treatment, for 6 weeks, of 78 patients diagnosed for the first time, who presented with upper symptoms ascribable to a diagnosis of GERD, in the presence/absence of typical symptoms. The patients were thus randomly assigned, on an open-label basis, in a 1:1 ratio: • 39 patients were treated with C1+PPIs (omeprazole) for 6 weeks; and • 39 patients were treated only with a PPI (omeprazole) for 6 weeks. […]
On these occasions patients filled out the RSI questionnaire, for the assessment of the severity of symptoms, and the Likert scale, for the assessment of the reduction in the frequency of symptoms. […] In this period, only the use of omeprazole (PPI), at a constant dosage, was allowed, according to the indications of the investigator, both to the patients included in the untreated group and in the treatment group, as a rescue medication to control symptoms and safety data were assessed. […]

COc1ccc2[nH]c([S+]([O-])Cc3ncc(C)c(OC)c3C)nc2c1 (stereo not drawn) [PPI, omeprazole]
MEAN of DELTA RSI per treatment group (V4 (6 weeks) versus baseline V1, N 28 (C1 + PPI), N 36 (PPI)): −13.69
DELTA (RSI V4 versus RSI V1, individual subject) (after 6 weeks of treatment versus baseline, one line per subject, preliminary, listed as IPPI): −11
RSI V4 (individual subject score) (examination V4 after 6 weeks of treatment, one line per subject, preliminary, listed as IPPI): 13
